Laboratory results from article PMC5896373 (Molecular Pharmacology, 2018).

Legend:
P2X7R point mutant V312A = molecular target: T1, P2X7R point mutant V312A (Homo sapiens, UniProt Q99572, I21V/M24R/N16P/N25R/Q22R/R20V/S23N/T19I/V312A/Y26L); assay: cell-based
T1 construct: expressed in transfected cells; host or cells: Xenopus laevis oocytes (cRNA injection)
Description: (§1) Injected oocytes were stored at 16°C in ND96 buffer [in millimolar concentrations, NaCl 96, KCl 2, CaCl2 1.8, MgCl2 1, sodium pyruvate 5, and HEPES 5 (pH 7.6) supplemented with 50 μg/ml gentamycin and 50 μg/ml tetracycline]. Three to seven days postinjection two-electrode voltage clamp recordings were made from oocytes bathed in divalent-free ND96 buffer (in millimolar concentrations, NaCl 96, KCl 2, sodium pyruvate 5, HEPES 5, and 0.1 flufenamic acid, pH 7.6). Oocytes were voltage clamped at a holding potential of −60 mV with a GeneClamp500B amplifier (Molecular Devices).
(§2) Inhibition by the antagonists was expressed as the percentage of the peak current amplitude of an EC90 concentration of ATP recorded before the application of antagonist (ATP gave reproducible responses to ATP in the absence of antagonist). Inhibition curves were fitted with the Hill equation (variable slope) using GraphPad Prism 6 (GraphPad Software, San Diego, CA). […] Individual concentration-response curves were generated for individual experiments, and statistical analysis was carried out on the data generated. […] Data are shown as mean ± S.E.M. In all cases n ≥ 3 for all data points.

P2X7R point mutant A166G = molecular target: T2, P2X7R point mutant A166G (Homo sapiens, UniProt Q99572, A166G/I21V/M24R/N16P/N25R/Q22R/R20V/S23N/T19I/Y26L); assay: Two-electrode voltage clamp of ATP-evoked currents in Xenopus oocytes; assay type: cell-based; details: EC90 ATP, mean ± S.E.M.
T2 construct: expressed in transfected cells; host or cells: Xenopus laevis oocytes (cRNA injection)
Description: as §1
(§3) Inhibition by the antagonists was expressed as the percentage of the peak current amplitude of an EC90 concentration of ATP recorded before the application of antagonist (ATP gave reproducible responses to ATP in the absence of antagonist). Inhibition curves were fitted with the Hill equation (variable slope) using GraphPad Prism 6 (GraphPad Software, San Diego, CA). […] Individual concentration-response curves were generated for individual experiments, and statistical analysis was carried out on the data generated. When shown in figures, the inhibition curves are fitted to the mean normalized data. […] Data are shown as mean ± S.E.M. In all cases n ≥ 3 for all data points.

P2X7R point mutant T308A = molecular target: T3, P2X7R point mutant T308A (Homo sapiens, UniProt Q99572, I21V/M24R/N16P/N25R/Q22R/R20V/S23N/T19I/T308A/Y26L); assay: as above; assay type: cell-based; details: EC90 ATP, mean ± S.E.M.
T3 construct: expressed in transfected cells; host or cells: Xenopus laevis oocytes (cRNA injection)
Description: as §1, §2

P2X7R point mutant Y299C = molecular target: T4, P2X7R point mutant Y299C (Homo sapiens, UniProt Q99572, I21V/M24R/N16P/N25R/Q22R/R20V/S23N/T19I/Y26L/Y299C); assay: as above; assay type: cell-based; details: EC90 ATP, mean ± S.E.M.
T4 construct: expressed in transfected cells; host or cells: Xenopus laevis oocytes (cRNA injection)
Description: (§4) Additional point mutants were made using the QuikChange mutagenesis kit (Stratagene California, La Jolla, CA). The production of the correct mutations and absence of coding errors was determined by DNA sequencing (Automated ABI Sequencing Service, University of Leicester, UK). cRNA was generated for the mutants and 50 nl (50 ng) was injected into manually defoliculated stage V Xenopus laevis oocytes using an Inject+Matic microinjector (J.A. Gabay, Inject+Matic, Geneva, Switzerland). Injected oocytes were stored at 16°C in ND96 buffer [in millimolar concentrations, NaCl 96, KCl 2, CaCl2 1.8, MgCl2 1, sodium pyruvate 5, and HEPES 5 (pH 7.6) supplemented with 50 μg/ml gentamycin and 50 μg/ml tetracycline]. Three to seven days postinjection two-electrode voltage clamp recordings were made from oocytes bathed in divalent-free ND96 buffer (in millimolar concentrations, NaCl 96, KCl 2, sodium pyruvate 5, HEPES 5, and 0.1 flufenamic acid, pH 7.6). Oocytes were voltage clamped at a holding potential of −60 mV with a GeneClamp500B amplifier (Molecular Devices).
(§5) Inhibition by the antagonists was expressed as the percentage of the peak current amplitude of an EC90 concentration of ATP recorded before the application of antagonist (ATP gave reproducible responses to ATP in the absence of antagonist). […]

P2X7R point mutant K110Y = molecular target: T5, P2X7R point mutant K110Y (Homo sapiens, UniProt Q99572, I21V/K110Y/M24R/N16P/N25R/Q22R/R20V/S23N/T19I/Y26L); assay: as above; assay type: cell-based
T5 construct: expressed in transfected cells; host or cells: Xenopus laevis oocytes (cRNA injection)
T5 sequence (Q99572 1-595 N16P/T19I/R20V/I21V/Q22R/S23N/M24R/N25R/Y26L/K110Y): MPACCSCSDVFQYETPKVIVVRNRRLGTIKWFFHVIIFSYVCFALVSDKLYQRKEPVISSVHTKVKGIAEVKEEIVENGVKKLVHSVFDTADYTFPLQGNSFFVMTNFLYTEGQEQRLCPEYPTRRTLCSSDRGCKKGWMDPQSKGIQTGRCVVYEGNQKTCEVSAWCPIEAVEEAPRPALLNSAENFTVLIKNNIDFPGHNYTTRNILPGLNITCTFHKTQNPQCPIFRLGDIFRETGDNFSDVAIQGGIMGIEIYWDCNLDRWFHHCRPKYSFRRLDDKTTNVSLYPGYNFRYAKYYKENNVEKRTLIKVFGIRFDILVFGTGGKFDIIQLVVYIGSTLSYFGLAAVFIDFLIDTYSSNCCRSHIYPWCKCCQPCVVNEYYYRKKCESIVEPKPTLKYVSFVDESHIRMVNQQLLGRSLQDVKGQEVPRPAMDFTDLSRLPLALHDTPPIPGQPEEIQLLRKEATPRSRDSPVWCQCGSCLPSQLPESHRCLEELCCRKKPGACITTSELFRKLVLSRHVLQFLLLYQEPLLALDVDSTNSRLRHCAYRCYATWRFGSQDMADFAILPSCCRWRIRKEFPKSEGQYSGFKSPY
Description: as §4, §2

P2X7R point mutant H85P = molecular target: T6, P2X7R point mutant H85P (Homo sapiens, UniProt Q99572, H85P/I21V/M24R/N16P/N25R/Q22R/R20V/S23N/T19I/Y26L); assay: as above; assay type: cell-based; details: EC90 ATP, mean ± S.E.M.
T6 construct: expressed in transfected cells; host or cells: Xenopus laevis oocytes (cRNA injection)
Description: as §4, §5

P2X7R point mutant P96A = molecular target: T7, P2X7R point mutant P96A (Homo sapiens, UniProt Q99572, I21V/M24R/N16P/N25R/P96A/Q22R/R20V/S23N/T19I/Y26L); assay: as above; assay type: cell-based; details: EC90 ATP, mean ± S.E.M.
T7 construct: expressed in transfected cells; host or cells: Xenopus laevis oocytes (cRNA injection)
Description: as §1, §2

[1] = molecular target: T8, chimeric P2X7/1 receptor 295–310 (Homo sapiens, UniProt Q99572, E305N/I21V/I310F/K297R/K300V/K306Y/M24R/N16P/N25R/N303G/Q22R/R20V/S23N/T19I/T308H/V304T/Y26L/Y295F/Y298H/Y299F); assay: cell-based; assay type: cell-based
T8 construct: expressed in transfected cells; host or cells: Xenopus laevis oocytes (cRNA injection)
Description: as §4, §2

P2X7R point mutant E305A = molecular target: T9, P2X7R point mutant E305A (Homo sapiens, UniProt Q99572, E305A/I21V/M24R/N16P/N25R/Q22R/R20V/S23N/T19I/Y26L); assay: Two-electrode voltage clamp of ATP-evoked currents in Xenopus oocytes; assay type: cell-based; details: EC90 ATP, mean ± S.E.M.
T9 construct: expressed in transfected cells; host or cells: Xenopus laevis oocytes (cRNA injection)
Description: as §1, §2

P2X7R point mutant T90V = molecular target: T10, P2X7R point mutant T90V (Homo sapiens, UniProt Q99572, I21V/M24R/N16P/N25R/Q22R/R20V/S23N/T19I/T90V/Y26L); assay: as above; assay type: cell-based; details: EC90 ATP, mean ± S.E.M.
T10 construct: expressed in transfected cells; host or cells: Xenopus laevis oocytes (cRNA injection)
Description: as §4, §5

P2X7R point mutant F95A = molecular target: T11, P2X7R point mutant F95A (Homo sapiens, UniProt Q99572, F95A/I21V/M24R/N16P/N25R/Q22R/R20V/S23N/T19I/Y26L); assay: cell-based
T11 construct: expressed in transfected cells; host or cells: Xenopus laevis oocytes (cRNA injection)
Description: as §1, §2

P2X7R point mutant S165F = molecular target: T12, P2X7R point mutant S165F (Homo sapiens, UniProt Q99572, I21V/M24R/N16P/N25R/Q22R/R20V/S165F/S23N/T19I/Y26L); assay: Two-electrode voltage clamp of ATP-evoked currents in Xenopus oocytes; assay type: cell-based; details: EC90 ATP, mean ± S.E.M.
T12 construct: expressed in transfected cells; host or cells: Xenopus laevis oocytes (cRNA injection)
Description: as §1, §3

P2X7R point mutant A91C = molecular target: T13, P2X7R point mutant A91C (Homo sapiens, UniProt Q99572, A91C/I21V/M24R/N16P/N25R/Q22R/R20V/S23N/T19I/Y26L); assay: cell-based
T13 construct: expressed in transfected cells; host or cells: Xenopus laevis oocytes (cRNA injection)
Description: as §1, §2

[2] = molecular target: T14, chimeric P2X7/1 receptor 122–128 (Homo sapiens, UniProt Q99572, DEL124-124/I21V/L128I/M24R/N16P/N25R/Q22R/R125E/R126G/R20V/S23N/T127G/T19I/Y122H/Y26L); assay: Two-electrode voltage clamp of ATP-evoked currents in Xenopus oocytes; assay type: cell-based
T14 construct: expressed in transfected cells; host or cells: Xenopus laevis oocytes (cRNA injection)
T14 sequence (Q99572 with tags, fused parts or gaps N16P/T19I/R20V/I21V/Q22R/S23N/M24R/N25R/Y26L/Y122H/DEL124-124/R125E/R126G/T127G/L128I): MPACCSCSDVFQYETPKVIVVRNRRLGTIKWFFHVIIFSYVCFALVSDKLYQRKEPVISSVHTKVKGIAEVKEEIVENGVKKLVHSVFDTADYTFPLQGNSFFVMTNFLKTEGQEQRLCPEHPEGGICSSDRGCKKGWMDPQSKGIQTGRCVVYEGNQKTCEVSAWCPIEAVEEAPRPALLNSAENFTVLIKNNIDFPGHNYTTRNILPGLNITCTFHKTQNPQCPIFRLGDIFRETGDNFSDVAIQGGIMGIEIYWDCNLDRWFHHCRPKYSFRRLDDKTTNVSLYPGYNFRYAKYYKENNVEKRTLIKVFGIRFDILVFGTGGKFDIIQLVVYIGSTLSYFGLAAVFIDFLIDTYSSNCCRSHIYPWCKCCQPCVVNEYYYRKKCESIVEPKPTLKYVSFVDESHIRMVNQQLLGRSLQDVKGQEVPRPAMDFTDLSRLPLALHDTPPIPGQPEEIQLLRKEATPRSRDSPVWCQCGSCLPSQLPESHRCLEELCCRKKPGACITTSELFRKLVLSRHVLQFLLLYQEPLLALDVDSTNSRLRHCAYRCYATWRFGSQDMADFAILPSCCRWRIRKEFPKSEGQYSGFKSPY
Description: as §4, §2

T10 sequence (Q99572 whole entry N16P/T19I/R20V/I21V/Q22R/S23N/M24R/N25R/Y26L/T90V): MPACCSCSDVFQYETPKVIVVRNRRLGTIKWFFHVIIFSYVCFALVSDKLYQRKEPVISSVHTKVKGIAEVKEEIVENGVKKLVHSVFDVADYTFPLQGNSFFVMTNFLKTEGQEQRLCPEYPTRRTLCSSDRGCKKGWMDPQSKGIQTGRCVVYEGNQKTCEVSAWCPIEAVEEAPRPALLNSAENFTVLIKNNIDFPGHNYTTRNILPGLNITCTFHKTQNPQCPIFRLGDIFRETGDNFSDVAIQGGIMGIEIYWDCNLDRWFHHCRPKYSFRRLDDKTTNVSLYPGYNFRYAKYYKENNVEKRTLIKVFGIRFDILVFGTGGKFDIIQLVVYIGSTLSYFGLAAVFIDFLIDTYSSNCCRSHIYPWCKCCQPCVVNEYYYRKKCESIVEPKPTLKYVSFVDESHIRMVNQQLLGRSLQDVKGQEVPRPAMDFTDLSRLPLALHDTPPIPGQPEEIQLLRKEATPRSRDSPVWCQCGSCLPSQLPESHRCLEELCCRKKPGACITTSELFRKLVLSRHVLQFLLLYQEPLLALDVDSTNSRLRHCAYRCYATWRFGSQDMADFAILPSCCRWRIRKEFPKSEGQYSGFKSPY
T7 sequence (Q99572 whole entry N16P/T19I/R20V/I21V/Q22R/S23N/M24R/N25R/Y26L/P96A): as the sequence (Q99572 whole entry N16P/T19I/R20V/I21V/Q22R/S23N/M24R/N25R/Y26L/T90V) above, with V90T, P96A counted along it
T8 sequence (Q99572 1-595 with the stated changes): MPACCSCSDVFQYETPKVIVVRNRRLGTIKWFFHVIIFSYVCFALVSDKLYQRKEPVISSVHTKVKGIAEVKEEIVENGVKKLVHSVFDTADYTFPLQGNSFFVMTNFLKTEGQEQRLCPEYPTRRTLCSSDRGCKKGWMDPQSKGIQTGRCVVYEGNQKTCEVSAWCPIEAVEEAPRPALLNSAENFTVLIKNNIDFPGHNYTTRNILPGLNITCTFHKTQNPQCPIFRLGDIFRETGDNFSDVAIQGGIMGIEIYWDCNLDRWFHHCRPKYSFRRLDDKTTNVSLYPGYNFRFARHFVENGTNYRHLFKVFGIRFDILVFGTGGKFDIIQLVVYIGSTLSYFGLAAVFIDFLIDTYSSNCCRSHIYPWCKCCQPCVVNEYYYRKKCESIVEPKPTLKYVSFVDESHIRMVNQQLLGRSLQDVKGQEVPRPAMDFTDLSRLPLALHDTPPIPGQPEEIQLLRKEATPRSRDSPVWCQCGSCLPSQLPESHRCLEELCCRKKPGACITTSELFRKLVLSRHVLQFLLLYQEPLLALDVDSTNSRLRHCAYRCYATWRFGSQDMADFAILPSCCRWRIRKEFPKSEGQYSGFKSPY
T9 sequence (Q99572 whole entry N16P/T19I/R20V/I21V/Q22R/S23N/M24R/N25R/Y26L/E305A): as the sequence (Q99572 whole entry N16P/T19I/R20V/I21V/Q22R/S23N/M24R/N25R/Y26L/T90V) above, with V90T, E305A counted along it
T6 sequence (Q99572 whole entry N16P/T19I/R20V/I21V/Q22R/S23N/M24R/N25R/Y26L/H85P): as the sequence (Q99572 whole entry N16P/T19I/R20V/I21V/Q22R/S23N/M24R/N25R/Y26L/T90V) above, with H85P, V90T counted along it
T3 sequence (Q99572 whole entry N16P/T19I/R20V/I21V/Q22R/S23N/M24R/N25R/Y26L/T308A): as the sequence (Q99572 whole entry N16P/T19I/R20V/I21V/Q22R/S23N/M24R/N25R/Y26L/T90V) above, with V90T, T308A counted along it
T13 sequence (Q99572 whole entry N16P/T19I/R20V/I21V/Q22R/S23N/M24R/N25R/Y26L/A91C): as the sequence (Q99572 whole entry N16P/T19I/R20V/I21V/Q22R/S23N/M24R/N25R/Y26L/T90V) above, with V90T, A91C counted along it
T1 sequence (Q99572 whole entry N16P/T19I/R20V/I21V/Q22R/S23N/M24R/N25R/Y26L/V312A): as the sequence (Q99572 whole entry N16P/T19I/R20V/I21V/Q22R/S23N/M24R/N25R/Y26L/T90V) above, with V90T, V312A counted along it
T4 sequence (Q99572 whole entry N16P/T19I/R20V/I21V/Q22R/S23N/M24R/N25R/Y26L/Y299C): as the sequence (Q99572 whole entry N16P/T19I/R20V/I21V/Q22R/S23N/M24R/N25R/Y26L/T90V) above, with V90T, Y299C counted along it
T11 sequence (Q99572 whole entry N16P/T19I/R20V/I21V/Q22R/S23N/M24R/N25R/Y26L/F95A): as the sequence (Q99572 whole entry N16P/T19I/R20V/I21V/Q22R/S23N/M24R/N25R/Y26L/T90V) above, with V90T, F95A counted along it
T12 sequence (Q99572 whole entry N16P/T19I/R20V/I21V/Q22R/S23N/M24R/N25R/Y26L/S165F): as the sequence (Q99572 whole entry N16P/T19I/R20V/I21V/Q22R/S23N/M24R/N25R/Y26L/T90V) above, with V90T, S165F counted along it
T2 sequence (Q99572 whole entry N16P/T19I/R20V/I21V/Q22R/S23N/M24R/N25R/Y26L/A166G): as the sequence (Q99572 whole entry N16P/T19I/R20V/I21V/Q22R/S23N/M24R/N25R/Y26L/T90V) above, with V90T, A166G counted along it

Cl.Clc1cccc(-c2nnnn2Cc2cccnc2)c1Cl.O [A438079, 3-(5-(2,3-dichlorophenyl)-1H-tetrazol-1-yl)methyl pyridine hydrochloride hydrate]
IC50 (P2X7R point mutant V312A): 5010 nM
IC50 (P2X7R point mutant A166G): 3980 nM
IC50 (P2X7R point mutant T308A): 1000 nM
IC50 (P2X7R point mutant Y299C): 251 nM
IC50 (P2X7R point mutant K110Y): 794 nM
IC50 (P2X7R point mutant H85P): 1000 nM
IC50 (P2X7R point mutant P96A): 12600 nM
IC50 [1]: 10000 nM
IC50 (P2X7R point mutant E305A): 200 nM
IC50 (P2X7R point mutant T90V): 5010 nM
IC50 (P2X7R point mutant F95A): > 100000 nM
IC50 (P2X7R point mutant S165F): 7940 nM
IC50 (P2X7R point mutant A91C): 20000 nM
IC50 [2]: 794 nM

COc1ccc(CC(=O)NC(N=C(NC#N)Nc2cccc3ncccc23)C(C)(C)C)cc1OC (stereo not drawn) [A740003, N-[1-[[(cyanoamino)(5-quinolinylamino)methylene]amino]-2,2-dimethylpropyl]-3,4-dimethoxybenzeneacetamide]
IC50 (P2X7R point mutant V312A): 398 nM
IC50 (P2X7R point mutant A166G): 316 nM
IC50 (P2X7R point mutant T308A): 100 nM
IC50 (P2X7R point mutant Y299C): 100 nM
IC50 (P2X7R point mutant K110Y): 100 nM
effect on antagonist sensitivity relative to P2X7-2Nβ (P2X7R point mutant K110Y; K110Y): no effect
IC50 (P2X7R point mutant H85P): 398 nM
IC50 (P2X7R point mutant P96A): 316 nM
IC50 [1]: 501 nM
IC50 (P2X7R point mutant E305A): 25.1 nM
IC50 (P2X7R point mutant T90V): 398 nM
IC50 (P2X7R point mutant F95A): 1000 nM
IC50 (P2X7R point mutant S165F): 200 nM
IC50 (P2X7R point mutant A91C): 2510 nM
IC50 [2]: 100 nM
effect on antagonist potency relative to P2X7-2Nβ ([2]; chimera 122–128): no effect
